In US12311054B2, “Compositions and methods of using propylene sulfide-based polymers for treatment of Chagas disease” (priority 2019, dated 2025):
Where two headings read alike, the source gives them in different places.

How the values were obtained:
[1] = tested on: extracellular T. cruzi developmental stages; details: cited from earlier work
[2] = tested on: T. cruzi Tulauen strain trypomastigote; experiment: Anti-trypomastigote activity, resazurin assay, Tulauen strain; format: cell-based; details: Trypanosoma cruzi, read-out: half-inhibitory concentration (IC50), Tulauan strain trypomastigote
Description: (§1) IC50 for two strains of T. cruzi. The trypancidal effectiveness of BNZ-PS for Y and Tulauen strain was evaluated in vitro using the resarzurin assay (FIG. 2a).
(§2) Resazurin method was used to evaluate in vitro anti-trypanosoma activity against Y trypomastigotes. 1×10^7 trypomastigotes mL^−1 were incubated in 96-well plates containing serial dilution of BNZ and BNZ-PS in RPMI […] medium with 5% FBS, penicillin (100 μL/mL), […] (100 μL/mL) and L-glutamine (2 mM). For BNZ, the stock solution (1024 mM) was prepared in DMSO and made serial dilution to 1024 μM, 512 μM, 256 μM, 128 μM, 64 μM, 32 μM, 16 μM, 8 μM, 4 μM. For BNZ-PS, the stock solution (BNZ 1170 μM) was made serial dilution to 256 μM, 128 μM, 64 μM, 32 μM, 16 μM, 8 μM, 4 μM, 2 μM, 1 μM, 0.5 μM. After incubation for 24 h, at 37° C. and 5% CO2, 10 μL of alamarBlue Cell Viability reagent (Invitrogen) were added in each well, then incubate at 37° C. for 4 h. The fluorescence was measure on a microplate reader (BMG Labtech) at 560/590 nm to evaluate trypomastigote viability. A log concentration vs response curve was generated and the BNZ IC50 was calculated in GraphPad Prism 7.0.

[3] = tested on: T. cruzi Y strain amastigote; experiment: Anti-amastigote activity in infected H9C2 cells, Giemsa counting, Y strain; format: cell-based; details: Trypanosoma cruzi, Y strain amastigotes in H9C2 cells, 48 h
[4] = tested on: T. cruzi-infected patients; details: standard BNZ doses; cited from earlier work
[5] = tested on: T. cruzi Tulahuen strain amastigote (Luc-mNeonGreen); experiment: Anti-amastigote activity in infected H9C2 cells, bioluminescent quantification, Tulahuen strain; format: cell-based; details: Trypanosoma cruzi, Tulauan strain amastigotes in H9C2 cells, bioluminescence, 48 h
Description: For the evaluation of anti-amastigote activity of T. cruzi Tulahuen strain, 5000 H9C2 cells were seeded in a 96 well clear bottom tissue culture plate (Thermo Scientific). After 24 hours, the culture was infected with Luc-mNeonGreen Tulahuen strain trypomastigotes at a 1:5 host-to-parasite cell ratio for 24 h. […] The medium was replaced every 24 h. At 48 h, 10 μL of 15 mg mL-1 luciferin were added into each well, and the luciferase intensity was measured using a IVIS Spectrum (Caliper Life Science) and the ROI was analyzed with Softmas Pro. Exposure time varied from 5 s to 15 s depending on signal intensity.

[6] = humans; cited from earlier work
[7] = tested on: T. cruzi Y strain infected BALB/c mice; experiment: BNZ and BNZ-PS therapy in murine model of acute Chagas disease; format: in vivo, mouse
[8] = tested on: T. cruzi Y strain trypomastigote; experiment: Anti-trypomastigote activity, resazurin assay, Y strain; format: cell-based; details: Trypanosoma cruzi, 24 h, read-out: half-inhibitory concentration (IC50), Y strain trypomastigote
Description: as §1
The Y strain of T. cruzi was used for all experiments. Epimastigotes were cultured using standard methods and tissue culture amastigotes and trypomastigotes were produced by the addition of log-phase epimastigotes to cultured H9C2 rat myoblast cells, which contain small numbers of metacyclic trypomastigotes capable of initiating mammalian cell infection. After several days of culture in H9C2 cells, amastigotes and trypomastigotes were purified for use in IC50 determination experiments.
as §2, with “For BNZ-PS, the stock solution (BNZ 1170 μM) was made serial dilution to 256 μM, 128 μM, 64 μM, 32 μM, 16 μM, 8 μM, 4 μM, 2 μM, 1 μM, 0.5 μM. After incubation for 24 h, at 37° C. and 5% CO2, 10 μL of alamarBlue Cell Viability reagent (Invitrogen) were added in each well, then incubate at 37° C. for 4 h.” left out

[9] = mice; cited from earlier work
[10] = traditional oral formulation; cited from earlier work
T. cruzi = experiment: IC50 of free vs nanocarrier-loaded Benznidazole (description, stage and strain not stated); format: cell-based; details: Trypanosoma cruzi; free vs loaded in nanocarrier; typical / estimated values
[11] = cited from earlier work
[12] = Assessment of the toxicity of BNZ and BNZ-PS in vivo; set-up: species or system mouse; details: BNZ 100 mg/kg
Description: […] Mice weight was recorded during the treatment course. […] Serums (Sera) were sent out to central lab (IDEXX BioResearch) to measure alanine aminotransferase (ALT/SGPT), aspartate aminotransferase (AST/SGOT), bile acid, bilirubin, blood urea nitrogen (BUN), creatinine, gamma-glutamyltransferase (GGT).

Row | SMILES | activity against extracellular T. cruzi developmental stages [1] | IC50 [2] [µM] | IC50 [3] [µM] | patients interrupting treatment due to severe side effects [4] [%] | IC50 [5] [µM] | half-life (t1/2) [6] [h] | heart parasitemia (qPCR) ([7]; end of experiment, 25 dpi) | suppression of parasitemia ([7]; infected mice treated from d7, monitored to d25) | IC50 [8] [µM] | half-life (t1/2) [9] [h] | fraction of drug bound to plasmatic proteins [10] | IC50 (T. cruzi) [µM] | water solubility [11] | water solubility ([11]; listed as Benznidazole (BNZ)) | hepatotoxicity, serum ALT ([12]; d21) | body weight during treatment ([12]; BNZ-PS 1.5 or 0.15 mg/kg, 3 weeks)
1 | C[C@@H]1[C@H](O)[C@@H](C)/C=C/C=C/C=C/C=C/C=C/C=C/C=C/[C@H](O[C@@H]2O[C@H](C)[C@@H](O)[C@H](N)[C@@H]2O)C[C@@H]2O[C@](O)(C[C@@H](O)C[C@@H](O)[C@H](O)CC[C@@H](O)C[C@@H](O)CC(=O)O[C@H]1C)C[C@H](O)[C@H]2C(=O)O [Amphotericin B] | satisfactory |  |  |  |  |  |  |  |  |  |  |  |  |  |  | 
2 | O=C(Cn1ccnc1[N+](=O)[O-])NCc1ccccc1 [BNZ, N-benzyl-2-(2-nitro-1H-imidazol-1-yl)acetamide] |  | 12.4 | 30.1 | 20 | 12.5 | 12 | significantly reduces the heart parasitemia | Effective suppression of parasitemia | 55.9 | 2 | over 40% | ~33 | practically insoluble in water | poor water solubility | show hepatotoxicity as reflected by increased serum ALT | lose weight
